Experimental data taken from US20200087258A1, “INHIBITOR OF CITRATE TRANSPORTER AND THEIR USE IN THERAPY” (Eternygen GmbH, priority 2017, published 2020).

Legend:
INDY = INDY (Homo sapiens, UniProt Q86YT5); assay: 14C-citrate uptake in HEK293 cells overexpressing recombinant human INDY (NaCT); assay type: cell-based; set-up: expressed in transfected cells; host or cells: HEK293
Summary of the method: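 HEK293 cells overexpressing human NaCT, 50,000/well, preincubated 5-30 min at 37 °C with compound in pH 6.5 Na+ buffer. 14C-citrate ([…]) uptake then ran 20-90 min at 37 °C, followed by ice-cold washes, NaOH lysis and scintillation counting. 10 mM citrate served as positive control.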

GLT-1 = biological target: T1, GLT-1 (Homo sapiens, UniProt P43004); assay: 3H-glutamate uptake counter assay in HEK293 cells overexpressing human GLT-1; assay type: cell-based
T1 construct: host or cells: HEK293 (virus made in GP293 packaging cells)
T1 sequence (P43004 whole entry): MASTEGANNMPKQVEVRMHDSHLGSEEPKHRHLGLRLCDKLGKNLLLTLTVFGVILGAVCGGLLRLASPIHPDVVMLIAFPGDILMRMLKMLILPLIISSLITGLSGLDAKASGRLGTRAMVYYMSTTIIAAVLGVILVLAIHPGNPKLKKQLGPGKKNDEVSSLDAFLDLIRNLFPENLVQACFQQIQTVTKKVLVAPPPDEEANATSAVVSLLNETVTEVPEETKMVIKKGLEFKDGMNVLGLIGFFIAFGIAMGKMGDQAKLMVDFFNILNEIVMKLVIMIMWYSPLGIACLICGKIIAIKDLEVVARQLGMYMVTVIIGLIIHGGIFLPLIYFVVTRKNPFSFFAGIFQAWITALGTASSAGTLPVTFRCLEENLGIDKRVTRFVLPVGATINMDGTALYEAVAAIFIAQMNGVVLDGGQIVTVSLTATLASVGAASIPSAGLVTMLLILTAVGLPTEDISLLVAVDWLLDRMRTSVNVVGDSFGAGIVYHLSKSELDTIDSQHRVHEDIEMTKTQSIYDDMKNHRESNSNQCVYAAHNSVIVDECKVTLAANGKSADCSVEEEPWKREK
Experimental: The compound was obtained by screening of a library containing more than 50,000 lead-like compounds and fragments. The library was tested using a functional citrate uptake assay with HEK293 cells overexpressing recombinant human INDY. The following hit confirmation was conducted in the same assay system. To confirm the activity of selected compounds on the target INDY another cell assay was conducted. In this assay system citrate uptake was measured using HepG2 cells which endogenously express INDY. Furthermore selectivity of selected compounds was tested for two other transporters in different assay systems. The first transporter was the glutamate transporter GLT-1 tested in a glutamate uptake assays using HEK293 cells overexpressing recombinant human GLT-1. The second transporter was the glucose transporter GLUT1 tested in a glucose uptake assay using Huh-7 cells which endogenously express GLUT1. Compounds were considered to be selective with an at least 5-fold higher activity for INDY than for the other two transporters.
Cells were maintained in cell medium using cell culture grade flasks (CellSTACK Corning, 500 cm2 dishes or T175 depending on cell number). The selection antibiotic and G418 (800 μg/ml) was added during cultivation but not for seeding into assay plates. For splitting, cells were washed with PBS (w/o Ca2+, Mg2+, phenol red) and detached with Trypsin/EDTA. Throughout cultivation cells were kept sub-confluent. Detached cells (50,000 cells/well) were seeded in 96-well plates (white, clear bottom from Corning #655098) and incubated over night before usage in the assay. The following media were used. For HEK293 cells expressing INDY MEM (PAA)+10% FCS+1×P/S+2 mM L-Gln; for HEK293 cells expressing GLT-1 DMEM (Gibco)+10% FCS+400 µg/ml G418; for Huh7 cells DMEM (Gibco)+10% FCS+2 mM L-Gin (+1×P/S); for HepG2 cells MEM (PAA, Cat # E15-024)+10% FCS+2 mM L-Gin+1×NEAA+1 mM Na-Pyruvat
The following assay buffers for the particular uptake reaction were used. Citrate uptake buffer: 120 mM NaCl, 5.4 mM KCl, 0.8 mM MgSO4, 5 mM glucose, 1.8 mM CaCl2, 25 mM Hepes, 25 mM MES, pH 6.5. Glutamate uptake buffer: HBSS, 1 mM CaCl2, 1 mM MgCl2, 20 mM Hepes pH 7.4. Glucose uptake buffer: 25 mM Hepes+25 mM MES pH 7.4, 120 mM NaCl, 5.4 mM KCl, 1.8 mM CaCl2, 0.8 mM MgSO4.
As a counter assay, Glutamate uptake by the GLT-1 transporter was used. The principle of the assay is to measure the uptake of ^3H labelled glutamate into HEK cells, which overexpress human GLT-1.
The generation of a GLT-1 cell line was performed as follows: human GLT11 isoform sv1 cDNA (Origene # RC223924) was cloned into vector pFB-Neo-CMV-hGLT1 using QIAfilter Plasmid Midi Kit (Qiagen). Virus was generated in GP293 packaging cells (transfection of plasmid with Lipofectamine 2000+OptiMEM). For transfection into HEK cells GP293, supernatant containing virus was passed through a 0.45 micron sterile filter and DEAE-dextran was added at […] final concentration. The solution was used to transfect HEK293 cells at 37° C., 8.5% CO2. After 24 h selection marker G418 at 400 μg/ml was added and cultivation medium performed in DMEM 10% FBS.
The assay was performed in a 96-well format using repeated washing steps, cell lysis and addition of scintillation fluid. Assay buffer was HBSS, 1 mM CaCl2, 1 mM MgCl2, […] pH 7.4. Cells were seeded into white clear-bottom 96-well plates (50,000/well) in the presence of Poly-D-Lysine and incubated at 37° C. for 16-24 hours. Subsequently the plates were washed once with assay buffer using automated washing/LS 405 Selectors, BioTek ending with a buffer volume of 40 μl. Then 5 μl of compound solution in assay buffer was added and incubated for 20 min at 37° C. in cell incubator, HERA cell Heraeus. Afterwards 10 μl of substrate 3H-Glu (3 nM) were added and incubated for another 20 min at 37° C. in cell incubator, HERAcell. Then the plates were washed once with 200 μl cold assay buffer and 150 μl scintillation fluid was added. […]

Sequence of INDY (Q86YT5 whole entry): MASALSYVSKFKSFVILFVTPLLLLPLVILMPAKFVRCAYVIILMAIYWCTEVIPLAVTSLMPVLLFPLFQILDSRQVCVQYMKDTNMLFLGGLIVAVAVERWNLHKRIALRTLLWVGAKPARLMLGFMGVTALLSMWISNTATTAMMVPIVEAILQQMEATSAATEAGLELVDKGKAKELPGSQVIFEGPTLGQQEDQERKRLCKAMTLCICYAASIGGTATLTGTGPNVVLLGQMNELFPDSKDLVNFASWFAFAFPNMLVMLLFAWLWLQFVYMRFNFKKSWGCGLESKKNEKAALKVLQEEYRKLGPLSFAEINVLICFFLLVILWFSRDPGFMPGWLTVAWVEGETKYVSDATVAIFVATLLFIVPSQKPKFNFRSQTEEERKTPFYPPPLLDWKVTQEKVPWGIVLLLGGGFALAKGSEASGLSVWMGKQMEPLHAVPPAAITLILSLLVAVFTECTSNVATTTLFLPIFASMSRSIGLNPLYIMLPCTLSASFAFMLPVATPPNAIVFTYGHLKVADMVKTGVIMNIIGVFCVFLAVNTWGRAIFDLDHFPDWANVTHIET

Row | SMILES | IC50 (INDY) [µM] | IC50 (GLT-1) [µM]
1 | O=C(NCc1ccccc1F)C1CCN(S(=O)(=O)c2cc(Cl)cc(Cl)c2)CC1 [Example 44, 1-(3,5-dichlorobenzenesulfonyl)-N-[(2-fluorophenyl)methyl]piperidine-4-carboxamide] | 0.1 | > 20
2 | O=C(NCc1ccccn1)C1CCN(S(=O)(=O)c2ccc(S(F)(F)(F)(F)F)cc2)CC1 [Example 86, 1-[4-(pentafluoro-lambda6-sulfanyl)benzenesulfonyl]-N-[(pyridin-2-yl)methyl]pipendine-4-carboxamide] | 1.1 | > 20
3 | O=C(NCc1ccccc1F)C1CCN(S(=O)(=O)c2ccc(C(F)(F)F)cc2)CC1 [Example 25, N-[(2-fluorophenyl)methyl]-1-[4-(trifluoromethyl)benzenesulfonyl]piperidine-4-carboxamide] | > 20 | > 20
4 | O=C(NCc1ccccc1F)C1CCN(S(=O)(=O)/C=C/c2ccccc2)CC1 [Example 5] | 2.9 | > 50
5 | COc1ccccc1CNC(=O)C1CN(S(=O)(=O)c2ccc(C(C)(C)C)cc2)C1 [Example 50, 1-(4-tert-butylbenzenesulfonyl)-N-[(2-methoxyphenyl)methyl]azetidine-3-carboxamide] | 4.4 | > 20
6 | O=C(NCc1ccccn1)C1CCN(S(=O)(=O)c2ccc(C(F)(F)F)cc2)CC1 [Example 57, N-[(pyridin-2-yl)methyl]-1-[4-(trifluoromethyl)benzenesulfonyl]piperidine-4-carboxamide] | 4.1 | > 20
7 | CC(C)(C)c1ccc(S(=O)(=O)N2CCC(C(=O)NCc3ccccc3F)CC2)cc1 [Example 12, 1-(4-tert-butylbenzenesulfonyl)-N-[(2-fluorophenyl)methyl]piperidine-4-carboxamide] | 0.2 | > 20
8 | O=C(NCc1ccccn1)C1CCN(S(=O)(=O)c2cc(Cl)cc(Cl)c2)CC1 [Example 55, 1-(3,5-dichlorobenzenesulfonyl)-N-[(pyridin-2-yl)methyl]piperidine-4-carboxamide] | 0.8 | > 20
9 | O=C(NCc1ccccn1)C1CCN(S(=O)(=O)c2cc(Cl)cc(C3CC3)c2)CC1 [Example 101, 1-(3-chloro-5-cyclopropylbenzenesulfonyl)-N-[(pyridin-2-yl)methyl]piperidine-4-carboxamide] | 0.3 | > 20
10 | O=C(NCc1ccccc1CO)C1CCN(S(=O)(=O)c2cc(Cl)cc(Cl)c2)CC1 [Example 87, 1-(3,5-dichlorobenzenesulfonyl)-N-{[2-(hydroxymethyl)phenyl]methyl}piperidine-4-carboxamide] | 0.6 | > 20
